Legend:
[1] = test system: striatum of normal Sprague-Dawley (SD) rats; test: Cytotoxic tissue response to CED by T2-weighted and diffusion-weighted MRI and histology
Method: The resultant solution was infused into the striatum of normal Sprague-Dawley (SD) rats (males, 250-300 grams). T1-weighted MR images were acquired immediately post treatment to assess the extent of convection. Additionally, T2-weighted and diffusion-weighted MR images were acquired 24 hours post treatment to assess the response of the tissue and its correlation to the extent of convection.
Under full anesthesia, a midline scalp incision was made to identify the bregma. A 1 mm burr hole was made in the right region of the skull, 3 mm anterior and 2 mm lateral to the bregma. A 33-gauge needle attached to a 1000 μl syringe (Gastight; Hamilton) was placed stereotactically 5.5 mm deep into the striatum. The infusion was performed using a BASI syringe pump at a rate of 1 μl/min for a duration ranging from […].
In order to obtain a wide range in volumes of distribution, the infusion times were varied between 17 to 60 minutes. 13 rats were treated with Carboplatin (4 mg/ml, 17 minutes infusion). […]
The volume (in cm^3) of the composition distribution was calculated from the T1-weighted MR images acquired immediately post CED treatment. […] The number of pixels in the ROIs was counted and multiplying by the volume of a single pixel. […]

C26 colon cancer tumors = test: CED of high viscosity toxic infusates in C26 tumors in mice thigh, MRI; format: in vivo, balb-c mice
Method: Five balb-c mice, bearing large (over 2 cm in diameter) C26 colon cancer tumors in the thigh, were treated with CED of high viscosity toxic infusates. […] Two mice were treated with a high concentration combination of Ethanol and Cremaphore (150 μl Ethanol and 150 μl Cremaphore diluted with Saline to 1 ml) at infusion rate of 4 μl/min for 105 minutes.
Infusates were mixed with Gd (1:70) prior to treatment. MR images were acquired immediately post treatment to assess the distribution of the drug within the tumor.

malignant gliomas = conditions: first 24-48 hours post intratumoral CED, patients with recurrent malignant brain tumors; cited from earlier work

For `CC(=O)O[C@H]1C(=O)[C@@]2(C)[C@H]([C@H](OC(=O)c3ccccc3)[C@]3(O)C[C@H](OC(=O)[C@H](O)[C@@H](NC(=O)c4ccccc4)c4ccccc4)C(C)=C1C3(C)C)[C@]1(OC(C)=O)CO[C@@H]1C[C@@H]2O` [Taxol®, Paclitaxel], the “histology of en block-resected lesion” value ([1]; rat, in vivo) was “Severe damage covering most of the striatum”, the “tumor tissue response (T2 MRI 24 hours post treatment)” value (C26 colon cancer tumors; mouse of FIGS. 16, efficient CED) was “complete necrosis” and the “tumor tissue response (T2 MRI 24 hours post treatment)” value (C26 colon cancer tumors; mouse of FIGS. 17, inefficient CED) was “no significant change in the tumor”. The “water diffusion changes on diffusion-weighted MRI” value (malignant gliomas) was “clear changes”.

With `N.N.O=C([O-])C1(C(=O)[O-])CCC1.[Pt+2]` [Carboplatin] the “enhancement in diffusion-weighted MR images” value ([1]; 24 hours post treatment, cases of efficient convection) was “significant enhancement”.
